Structures are written as SMILES.

This note sets out measurements from US8632815B2 (Laila Pharmaceutical Pvt., Ltd., priority 2008, dated 2014).

The nature of series [1]: Particle size distribution, Malvern particle size analyzer. It counts as physicochemical. The following applies: laser diffraction. The protocol: The study was conducted using Malvern particle size analyzer. The map of scattering intensity versus angle is the primary source of information used to calculate the particle size. The scattering of particles is accurately predicted by the Mie scattering model allowing accurate sizing across the widest possible dynamic range. During the laser diffraction measurement, particles are passed through a focused laser beam. These particles scatter light at an angle that is inversely proportional to their size. The angular intensity of the scattered light is then measured by a series of photosensitive detectors. The advantage of this study is that there is no sample preparation involved.
This is a clear indication that the process of nanoemulsification followed has effectively transformed the large sized particles to nanosized coated curcuminoid particles. Additional peaks can be observed which is contributed by the high molecular weight excipients used to prepare the formulation.

Series [2] deals with selenite-induced cataract in Wistar rat pups. Nature of the series: In vivo anti-cataract efficacy, selenite-induced cataract. The protocol:
Animals were grouped into Group I (control), Group II (sodium selenite) and Group III (treatment).
Two hours later Sodium Selenite (25 μM/kg·bw of 5 ml/kg·bw) was injected subcutaneously to both group II and III animals, thereafter 5 μl of LP002-09 was instilled topically to the eyes of group III animals only.
All animals were observed individually through out the observation period for any clinical signs and mortality. On the examination day i.e. when the pups first opened their eyes, the development of cataract was observed by the presence or absence of opacity by dilating the pupil with 0.8% tropicamide.
The cataract was scored on a scale of 0 to 4 according to procedure described by Muranov et al., (2004). Grade 0 was a normal clear lens, Grade 1 was a subcapsular opacity; Grade 2 was nuclear cataract, Grade 3 was strong nuclear cataract; Grade 4 was dense opacity involving entire lens and the results have been presented in below table 1

[3] abbreviates: of 20 eyes, rat pups, sodium selenite s.c.

On to `COc1cc(/C=C/C(=O)CC(=O)/C=C/c2ccc(O)c(OC)c2)ccc1O` [unformulated curcumin 98%, Curcumin], for which the particle size was 373 nm in series [1] and 374 nm in series [1] (listed as curcumin).
Turning to `O=[Se](O)O` [Sodium Selenite], the “Total Percentage of cataract” value in series [2] (20 eyes, rat pups) amounted to 100%. Moreover, in series [2] (cataract scale 0 to 4, LP002-09 P < 0.0001 vs. Sodium Selenite treated), the “Grade (Mean ± S.D.)” value is reported as 3.6 ± 0.68. Besides, in series [2] (setting [3]), the “Dense opacity involving entire lens, Score 4 (number of eyes)” value was determined as 14; the “No Opacity, Score 0 (number of eyes)” value came to 0; the “Nuclear cataract, Score 2 (number of eyes)” value stood at 2; the “Strong Nuclear cataract, Score 3 (number of eyes)” value is listed as 4. Also, the “Subcapsular opacity, Score 1 (number of eyes)” value in series [2] (setting [3]) came to 0. Also, in series [2] (percent of eyes), the “eyes with dense opacity type cataract” value was 70%, the “eyes with nuclear cataract” value was 10% and the “eyes with strong nuclear cataract” value stood at 20%.
